{"source": "patent US20230220353A1", "about": "“IN VITRO LIVER ORGANOIDS AND MINI-BILE DUCT MODELS OF BILIARY ARTRESIA AND APPLICATIONS THEREOF” (priority 2022, published 2023)", "key": {"[1]": {"tested_on": "human liver organoids", "assay": "Immunostaining of human liver organoids for differentiation, polarity, cytoskeleton and β-amyloid markers", "format": "cell-based", "procedure": "Hepatocytic differentiation in human organoids was assessed by immuno-fluorescence for hepatocyte maker (HNF4A). Organoids in the Matrigel were washed with PBS (phosphate-buffered saline) before being fixed with 4% paraformaldehyde at room temperature for 20 minutes. The organoids were permeabilized with Triton X-100 (0.5% in PBS) for 20 minutes and blocked with 3% bovine serum albumin (BSA, Sigma-Aldrich) in PBS with 0.05% Triton X-100 (PBST) for 30 minutes at room temperature. The organoids were then incubated in primary antibodies (diluted in PBST with 3% BSA) at 4° C. overnight. After PBST washes (5 minutes for 3 times), organoids were incubated in secondary antibodies (diluted in PBST with 3% BSA) for 2 hours at room temperature. Afterward, the organoids were rinsed with PBS 3 times and incubated with DAPI solution for 30 minutes at room temperature. The organoids were rinsed with PBS (5 minutes for 3 times). Primary and secondary antibodies used in this examples were anti-ZO-1 (1:50, RA231621, Thermo Fisher), anti-CK19 (1:200, ab220193, Abcam), anti-F-actin (1:500, A22287, Thermo Fisher), anti-beta-amyloid (1:200, SIG-39220, 4G8, BioLegend), anti-HNF4A (1:50, ab201460, Abcam), Alexa Fluor 488 (1:500, A11008, Invitrogen) and Alexa Fluor 594 (1:500, A11032, Invitrogen).\n(§1) Organoids were imaged on a laser confocal microscopy (Leica) equipped with a 20× dry objective and a 63× oil-immersion objective. Images were analyzed using ImageJ software. For quantification of the number of cilia from each group, the organoids were imaged using confocal microscopy (0.8 μm Z-axis interval, 40 μm in thickness). Maximum intensity projection was performed for visualization of the cilia in the organoids. FIG. 3A are representative images of control and day-2 biliatresone-treated human liver organoids stained for HNF4A (green). Nuclei were stained with DAPI (blue). The percentage of HNF4A positive cells in control and day-2 biliatresone-treated organoids were determined by counting the total number of cells and HNF4A+ cells of the organoids. Number of organoids counted in each group=3; *, p<0.05, student's t-test; error bars indicated the standard deviation.\nTo test if biliatresone induces apical-basal polarity defects in human organoids, the control group and biliatresone-treated organoids were stained with anti-ZO-1 antibody. FIG. 4 depicts the result of immunostaining of control and day-2 biliatresone-treated human liver organoids for ZO-1 (green) and CK19 (red). Nuclei were stained with DAPI (blue).\nTo investigate if biliatresone also induces cytoskeleton defects and Aβ accumulation in human organoids, Immunostaining was carried out for the control and day-2 biliatresone-treated human liver organoids for cytoskeleton protein F-actin (green) and β-amyloid (red). Nuclei were stained with DAPI (blue).\nThe percentages of β-amyloid positive cells in control and day-2 biliatresone-treated organoids were determined by counting total number of cells and β-amyloid+ cells of the organoids. Number of organoids counted in each group=3; *, p<0.05, student's t-test; error bars indicated the standard deviation."}, "[2]": {"tested_on": "human liver organoids", "assay": "FITC-labeled dextran diffusion test (tight junction barrier integrity)", "format": "cell-based", "conditions": "day-2 treated organoids, after 10 minutes of incubation; not observed in control", "procedure": "In order to determine the integrity of liver organoids, a FITC-labeled dextran diffusion test was carried out to investigate if biliatresone-treated organoids has defects in the tight junction barrier for solutes. […] The fluorescent intensity of liver organoids was imaged using laser confocal microscopy at 10 and 30 minutes."}, "[3]": {"tested_on": "human liver organoids", "assay": "Ciliated cholangiocyte count (pericentrin / acetylated α-tubulin immunostaining)", "format": "cell-based", "procedure": "as §1\nTo investigate if biliatresone disturbed ciliogenesis in human organoids, control organoids and biliatresone-treated organoids were immuno-stained for ciliary proteins Pericentrin (PCNT) and alpha-tubulin. […] The percentages of ciliated cells in control and biliatresone-treated organoids were determined by counting total number of cells and ciliated cells of the organoids. Number of organoids counted in each group=3; *, p<0.05, student's t-test; error bars indicated the standard deviation."}, "[4]": {"molecular_target": "MDR1 (Homo sapiens, UniProt P08183)", "sequence (P08183 whole entry)": "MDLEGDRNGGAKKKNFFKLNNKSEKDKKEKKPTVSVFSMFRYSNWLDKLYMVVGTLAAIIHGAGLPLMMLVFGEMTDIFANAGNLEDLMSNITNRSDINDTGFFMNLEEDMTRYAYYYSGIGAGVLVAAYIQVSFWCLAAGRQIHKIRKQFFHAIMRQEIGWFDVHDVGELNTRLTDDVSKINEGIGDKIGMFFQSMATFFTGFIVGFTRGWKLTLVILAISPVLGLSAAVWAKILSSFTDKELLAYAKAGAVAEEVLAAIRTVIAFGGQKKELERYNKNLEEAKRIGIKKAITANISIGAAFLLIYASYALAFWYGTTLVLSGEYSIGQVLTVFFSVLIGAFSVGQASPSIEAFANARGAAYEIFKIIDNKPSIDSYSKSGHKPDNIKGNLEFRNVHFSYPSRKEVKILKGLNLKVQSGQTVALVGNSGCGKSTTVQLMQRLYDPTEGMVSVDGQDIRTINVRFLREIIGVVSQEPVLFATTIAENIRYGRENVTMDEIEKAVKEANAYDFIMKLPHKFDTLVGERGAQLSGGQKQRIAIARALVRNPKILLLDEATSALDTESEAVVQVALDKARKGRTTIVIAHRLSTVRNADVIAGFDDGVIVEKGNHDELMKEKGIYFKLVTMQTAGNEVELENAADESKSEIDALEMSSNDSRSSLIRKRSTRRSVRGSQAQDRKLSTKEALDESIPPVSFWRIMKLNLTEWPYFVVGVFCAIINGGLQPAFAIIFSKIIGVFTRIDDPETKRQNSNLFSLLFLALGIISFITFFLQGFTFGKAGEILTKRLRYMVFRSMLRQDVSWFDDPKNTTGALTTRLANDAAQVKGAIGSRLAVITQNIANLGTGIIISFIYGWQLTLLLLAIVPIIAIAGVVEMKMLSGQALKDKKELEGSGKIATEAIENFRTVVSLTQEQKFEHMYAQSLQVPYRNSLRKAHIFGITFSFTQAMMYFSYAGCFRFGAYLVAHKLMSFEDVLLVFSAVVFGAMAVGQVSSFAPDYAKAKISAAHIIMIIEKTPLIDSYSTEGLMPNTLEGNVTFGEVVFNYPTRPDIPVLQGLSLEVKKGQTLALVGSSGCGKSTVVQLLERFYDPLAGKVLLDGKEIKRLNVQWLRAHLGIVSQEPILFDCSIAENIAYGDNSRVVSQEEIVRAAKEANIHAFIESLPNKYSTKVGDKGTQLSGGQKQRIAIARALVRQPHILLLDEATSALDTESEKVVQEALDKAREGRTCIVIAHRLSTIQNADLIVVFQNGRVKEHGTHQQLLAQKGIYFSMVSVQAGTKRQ", "assay": "MDR1 activity assay (MDR1-mediated Rhodamine 123 transport assay)", "conditions": "day-2 biliatresone-treated organoids, Rhodamine 123 100 μM, 30 minutes", "procedure": "A MDR1 activity assay (MDR1-mediated Rhodamine 123 (R123) transport assay) was then performed to investigate the defective cholangiocyte differentiation of biliatresone-treated organoids.\nAfterward, the liver organoids were washed with PBS and incubated in culture medium containing Rhodamine 123 (100 μM) at 37° C. for 30 minutes. After washing with PBS, the fluorescence of liver organoids was then visualized by laser confocal microscopy (Leica) immediately (as 0 minutes) and after 30 minutes incubation in culture medium."}, "[5]": {"tested_on": "SOX17", "assay": "SOX17 mRNA expression by real-time PCR normalized to GAPDH", "format": "cell-based, human", "conditions": "day-2 treated organoids vs control", "description": "Gene expressions in liver ductal organoids with or without biliatresone treatment for 2 day and 5 days were investigated. mRNA expression levels were characterized by real-time PCR for SOX17 normalized to GAPDH."}, "[6]": {"tested_on": "human cholangiocytes", "assay": "Cilia mechano-sensory calcium influx assay in mini-bile duct under shear flow (Calbryte 520)", "format": "cell-based", "conditions": "2 μg/ml for 5 days, shear flow 1 dyne/cm2, vs untreated cholangiocytes", "procedure": "The organoids were released from the Matrigel by cold Advanced DMEM. The organoid pellets were obtained by centrifugation at 300 g, 3 minutes. Afterwards, the organoids were digested for 5 minutes at 37° C. via 1 mL of TrypLE Express Enzyme (1×). About 5,000 of organoid cells were seeded into each channel of the Matrigel coated 6-channel ibidi microfluidic chips (80607, ibidi), and the microfluidic chips were incubated at 37° C. in incubator. At day 3, monoloayer of cholangiocytes was formed representing the mini-bile duct with the luminal side facing the medium and the basal side facing the bottom of the microfluidic chips. To prepare for the calcium influx measurement, cholangiocyte monolayer was first incubated with 5 μM of Calbryte 520-AM (ATT) (prepared in Hanks' balanced salt solution, HBSS) for 1 hour at 37° C. Then, the cholangiocytes were washed with HBSS (5 minutes for 3 times). […] Time-lapse images were acquired for green fluorescence for 20 seconds (1-second intervals and 10 milliseconds exposure time) using Nikon Ti2e microscope (Nikon, Japan). […]\nOn day 3 post confluence, cholangiocytes were incubated with 5 μM of Calbryte 520-AM (ATT) (prepared in Hanks' balanced salt solution, HBSS) for 1 hour at 37° C. […] Time-lapse images were acquired for green fluorescence for 20 seconds (1-second intervals and 10 milliseconds exposure time) using Nikon Ti2e microscope (Nikon, Japan). […]"}, "[7]": {"tested_on": "GSH", "assay": "GSH level in liver organoids", "format": "cell-based, human", "procedure": "GSH levels were measured in liver organoids from 0 to 48 hours without (Ctrl) or with biliatresone. Data was obtained from 3 wells in each group; *, p<0.05, student's t-test; error bars indicated the standard deviation."}, "[8]": {"tested_on": "human liver organoids", "assay": "Growth and morphology of human liver organoids (Hematoxylin and Eosin staining)", "format": "cell-based", "conditions": "2 μg/ml biliatresone", "procedure": "Briefly, liver biopsy was minced and digested in gentle MACS-C Tube with 5 ml digestion medium (Multi Tissue Dissociation Kit 1), filtered (70 μm and 30 μm) and sorted by human CD326 (EpCAM) magnetic beads. CD326 positive cells were mixed with Matrigel (50,000 cells in 50 μl) and added to each well of a four-well culture plate (Nunc™ 4-Well Dishes). After Matrigel solidification, organoid medium (Advanced DMEM/F12 supplemented with 1% Penicillin/Streptomycin (Invitrogen), 250 ng/ml Amphotericin B (GIBCO), […], 1% N2 and 1% B27(GIBCO), 1.25 mM N-Acetylcysteine (Sigma), 10 nM gastrin (Sigma), and the growth factors: 50 ng/ml mEGF (Peprotech), 100 ng/ml FGF10 (Peprotech), 25 ng/ml HGF (Peprotech), 10 mM Nicotinamide (Sigma), 5 μM A83.01 (Tocris), and 10 μM FSK (Tocris), 25 ng/ml Noggin (Peprotech), 500 ng/ml R-Spondin 1 (R&D), 100 ng/ml Wnt3a (R&D), 10 μM Y27632 (Sigma Aldrich)) was added for organoid culturing. The medium was changed every three days. After culturing for 5 days, biliatresone solution (2867, Axon MEDCHEM; 2 μg/ml in DMSO) was added into the medium and the organoids were cultured for different periods for subsequent analysis. For the untreated control culture, DMSO (same volume as biliatresone) was added to the culture. FIG. 1 is a schematic diagram of the generation of biliatresone treated human liver organoids. […]"}, "[9]": {"conditions": "day-2 treated organoids vs control"}}}
{"smiles": "C=C(C(=O)c1c(OC)cc2c(c1OC)OCO2)c1ccccc1O", "note": "[biliatresone, Biliatresone]", "values": [{"measurement": "percentage of Aβ positive cells", "setting": "[1]; day-2 treated culture vs control culture (no Aβ positive cells in control), p<0.05", "result": "significantly higher"}, {"measurement": "ZO-1 immuno-reactivity", "setting": "[1]; [9]", "result": "markedly reduced"}, {"measurement": "expression of cholangiocyte MDR1", "setting": "[1]; [9]", "result": "drastically reduced"}, {"measurement": "percentage of HNF4A+ cells in organoids", "setting": "[1]; day-2 treated organoids, 2 μg/ml, Mean±SD, n=3, control 14.9±2%", "result": "57.3±8", "unit": "%"}, {"measurement": "F-actin localization", "setting": "[1]; day-2 treated organoids, control: apical side only", "result": "both the apical and the basal sides"}, {"measurement": "expression of cholangiocyte marker CK19", "setting": "[1]; treated organoids vs control", "result": "drastically reduced"}, {"measurement": "FITC-dextran (10 kDa) localization", "setting": "[2]", "result": "localize in the lumen"}, {"measurement": "percentage of ciliated cells", "setting": "[3]; day 1 of treatment, Mean±SD, control 10.7±5%", "result": "4.2±2", "unit": "%"}, {"measurement": "percentage of ciliated cells", "setting": "[3]; day 3 of treatment", "result": 0, "unit": "%"}, {"measurement": "R123 transport across the organoid membrane", "setting": "[4]", "result": "very inefficient"}, {"measurement": "SOX17 expression", "setting": "[5]", "result": "small but significant drop"}, {"measurement": "extent of calcium influx", "setting": "[6]", "result": "significantly reduced"}, {"measurement": "percentage of evoked cells after perfusion stimulation", "setting": "[6]", "result": "significantly reduced"}, {"measurement": "GSH level", "setting": "[7]; 6, 24 and 48 hours of treatment", "result": "restored"}, {"measurement": "GSH level", "setting": "[7]; 3 hours of treatment vs control", "result": "small but significant drop"}, {"measurement": "organoid morphology", "setting": "[8]; day 5, vs DMSO control", "result": "not well-expanded"}, {"measurement": "organoid diameter", "setting": "[8]; day 5, control organoids 25-100 μm", "result": "5-20 μm"}]}
